Experimental findings from US20100143890A1 (priority 2008, published 2010) are described below.

SMILES strings stand for the structures.

The test system of the assay is AI virus proteins (3425P and 3427P, ProSci Inc.); H5 protein. Format: binding, avian influenza virus.

As for `CC(=O)N[C@H]1[C@H]([C@H](O)[C@H](O)CO)O[C@@](O[C@H]2[C@@H](O)[C@@H](CO)O[C@@H](O[C@H]3[C@H](O)[C@@H](O)C(O)O[C@@H]3CO)[C@@H]2O)(C(=O)O)C[C@@H]1O` (some centres unmarked) [3-silaiic-lactose], the “binding properties compared with commercially available antibody” value is “not active”. For `CC(=O)NC1C(O)CC(OCC2OC(OC3C(CO)OC(O)C(O)C3O)C(O)C(O)C2O)(C(=O)O)OC1C(O)C(O)CO` (centres unmarked) [6′-sialic lactose] the value was “not active”.
